Data from patent publication US12685716B1 (priority 2022, dated 2026).

System: subject with AF/AFL
Assay: Initiation of IV sotalol followed by first oral dose and same-day discharge (case Examples 1-12)
Type: in vivo, human
Method: • 1. After admission, obtain baseline parameters including QTc interval, HR, BP. • 2. […] Monitor QTc interval, HR, BP every 15 minutes during infusion. • 4. Administer first oral dose at the appropriate time based on renal function. For CrCl≥60 mL/min, oral administration time is planned 4 hours following the completion of IV infusion. For CrCl=30-59 mL/min, oral administration time is planned 6 hours following the completion of IV infusion. • 5. Obtain monitoring parameters including QTc interval, HR, BP at about 2 hours after oral administration. • 6. […] At arrival, baseline labs were obtained, and the subject was placed on continuous electrocardiogra monitoring. […] At arrival, baseline labs were obtained, and the subject was placed on continuous electrocardiography monitoring. […] At arrival, baseline labs were obtained, and the subject was placed on continuous electrocardiography monitoring. […] At arrival, baseline labs were obtained, and the subject was placed on continuous electrocardiography monitoring. […] At arrival, baseline labs were obtained, and the subject was placed on continuous electrocardiography monitoring. […] At arrival, baseline labs were obtained, and the subject was placed on continuous electrocardiography monitoring. […] At arrival, baseline labs were obtained, and the subject was placed on continuous electrocardiography monitoring. […] At arrival, baseline labs were obtained, and the subject was placed on continuous electrocardiography monitoring. […] At arrival, baseline labs were obtained, and the subject was placed on continuous electrocardiography monitoring. […] At arrival, baseline labs were obtained, and the subject was placed on continuous electrocardiography monitoring. […] At arrival, baseline labs were obtained, and the subject was placed on continuous electrocardiography monitoring. […] At arrival, baseline labs were obtained, and the subject was placed on continuous electrocardiography monitoring.

[1] = Example 1: IV 82.5 mg, DCCV, PO 80 mg 4 h after IV completion
[2] = Example 2: IV 82.5 mg, PO 80 mg 4 h after IV completion
[3] = Example 3: IV 75 mg, DCCV, PO 80 mg 5.5 h after IV completion
[4] = Example 4: IV 75 mg, DCCV, PO 80 mg 6.5 h after IV completion
[5] = Example 5: IV 75 mg, DCCV, PO 80 mg 5 h after IV completion
[6] = Example 6: IV 75 mg, DCCV, PO 80 mg 5.5 h after IV completion
[7] = Example 7: IV 60 mg, PO 120 mg 5 h after IV completion, second DCCV
[8] = Example 8: IV 82.5 mg, DCCV, PO 80 mg 4 h after IV completion
[9] = Example 9: IV 90 mg, DCCV, PO 120 mg 3.5 h after IV completion
[10] = Example 10: IV 75 mg, DCCV, PO 80 mg 6 h after IV completion
[11] = Example 11: IV 75 mg, DCCV, PO 80 mg 6 h after IV completion
[12] = Example 12: IV 75 mg, DCCV, PO 80 mg 6 h after IV completion

Which results are given for `CC(C)NCC(O)c1ccc(NS(C)(=O)=O)cc1` (stereo not shown) [sotalol, d,1-sotalol]?
Monitoring parameters (QTc, HR, BP) two hours after oral administration [1]: within normal limits; Rhythm two hours after oral administration [1]: remained in NSR; Rhythm conversion after IV sotalol infusion (Example 1: person, persistent AF/AFL, IV 82.5 mg over 1 h, then DCCV): converted from AF to NSR; Monitoring parameters (QTc, HR, BP) two hours after oral administration [2]: within normal limits; Rhythm two hours after oral administration [2]: remained in NSR; Rhythm conversion after IV sotalol infusion (Example 2: person, paroxysmal AF and PVCs, IV 82.5 mg over 1 h, no DCCV): converted from AF to NSR; Monitoring parameters including QTc two hours after oral administration [3]: within normal limits; Rhythm two hours after oral administration [3]: remained in NSR; Rhythm conversion after IV sotalol infusion (Example 3: person, persistent AF, CrCl 30 mL/min, IV 75 mg over 1 h, then DCCV): converted from AF to NSR; Monitoring parameters including QTc two hours after oral administration [4]: within normal limits; Rhythm two hours after oral administration [4]: remained in NSR; Rhythm conversion after IV sotalol infusion (Example 4: person, persistent AF, CrCl 38 mL/min, IV 75 mg over 1 h, then DCCV): converted from AF to NSR; Monitoring parameters including QTc two hours after oral administration [5]: within normal limits; Rhythm two hours after oral administration [5]: remained in NSR; Rhythm conversion after IV sotalol infusion (Example 5: person, persistent AF, CrCl 37 mL/min, IV 75 mg over 1 h, then DCCV): converted from AF to NSR; Monitoring parameters including QTc two hours after oral administration [6]: within normal limits; Rhythm two hours after oral administration [6]: remained in NSR; Rhythm conversion after IV sotalol infusion (Example 6: person, PVCs and paroxysmal AF, CrCl 41 mL/min, IV 75 mg over 1 h, then DCCV): converting the subject from AF to NSR; Monitoring parameters (QTc, HR, BP) two hours after oral administration [7]: within normal limits; Rhythm two hours after oral administration [7]: remained in NSR; Rhythm conversion after first oral dose and second DCCV (Example 7: IV 60 mg, PO 120 mg 5 h after IV completion, then second DCCV): converted from AF to NSR; Rhythm conversion after IV sotalol infusion and first DCCV attempt (Example 7: person, persistent AF, IV 60 mg over 1 h, then first DCCV): failed to convert; Monitoring parameters (QTc, HR, BP) two hours after oral administration [8]: within normal limits; Rhythm two hours after oral administration [8]: remained in NSR; Rhythm conversion after IV sotalol infusion (Example 8: person, persistent AF, IV 82.5 mg over 1 h, then DCCV): converted from AF to NSR; Monitoring parameters (QTc, HR, BP) two hours after oral administration [9]: within normal limits; Rhythm two hours after oral administration [9]: remained in NSR; Rhythm conversion after IV sotalol infusion (Example 9: person, persistent AF, IV 90 mg over 1 h, then DCCV): converting the subject from AF to NSR; Monitoring parameters (QTc, HR, BP) two hours after oral administration [10]: within normal limits; Rhythm two hours after oral administration [10]: remained in NSR; Rhythm conversion after IV sotalol infusion (Example 10: person, persistent AF, CrCl 56 mL/min, IV 75 mg over 1 h, then DCCV): converted from AF to NSR; Monitoring parameters (QTc, HR, BP) two hours after oral administration [11]: within normal limits; Rhythm two hours after oral administration [11]: remained in NSR; Rhythm conversion after IV sotalol infusion (Example 11: person, persistent AF, CrCl 50 mL/min, IV 75 mg over 1 h, then DCCV): converted from AF to NSR; Monitoring parameters (QTc, HR, BP) two hours after oral administration [12]: within normal limits; Rhythm two hours after oral administration [12]: remained in NSR; Rhythm conversion after IV sotalol infusion (Example 12: person, PVCs and persistent AF, CrCl 53 mL/min, IV 75 mg over 1 h, then DCCV): converted from AF to NSR
